The target in experiment [1] is T1, BRM (Homo sapiens, UniProt P51531).
T1 construct: made in house; host or cells: High Five insect cells
Kind of experiment: ATPase catalytic activity of BRM, ADP-Glo in vitro biochemical assay. To be noted: for IC50: ADP-Glo ATPase assay, 30 nM BRM, 400 μM ATP; for Ratio* (BRG1 IC50 (μM) divided by BRM IC50 (μM)): selectivity ratio BRG1 IC50 / BRM IC50. A digest of the protocol:
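Recombinant BRM (30 nM) hydrolysed 400 μM ATP with 20 nM salmon sperm DNA in pH 8 Tris buffer containing 20 mM MgCl2, 50 mM NaCl, 0.1% Tween-20 and 1 mM DTT, 1 h at room temperature. ADP formed was quantified by ADP-Glo luminescence.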

The target of experiment [2] is T2, BRG-1 (Homo sapiens, UniProt P51532).
T2 construct: made in house; host or cells: High Five insect cells
Kind of experiment: ATPase catalytic activity of BRG-1, ADP-Glo in vitro biochemical assay. To be noted: ADP-Glo ATPase assay, 30 nM BRG-1, 400 μM ATP; read-out: BRG1 IC50. A digest of the protocol:
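BRG-1 ATPase activity was measured in vitro by ADP-Glo. After the reaction, ADP-Glo Reagent depleted unconsumed ATP (40 min, room temperature), then Kinase Detection Reagent converted product ADP to ATP (60 min, room temperature), and luciferase luminescence was read.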

T1 sequence (P51531 whole entry): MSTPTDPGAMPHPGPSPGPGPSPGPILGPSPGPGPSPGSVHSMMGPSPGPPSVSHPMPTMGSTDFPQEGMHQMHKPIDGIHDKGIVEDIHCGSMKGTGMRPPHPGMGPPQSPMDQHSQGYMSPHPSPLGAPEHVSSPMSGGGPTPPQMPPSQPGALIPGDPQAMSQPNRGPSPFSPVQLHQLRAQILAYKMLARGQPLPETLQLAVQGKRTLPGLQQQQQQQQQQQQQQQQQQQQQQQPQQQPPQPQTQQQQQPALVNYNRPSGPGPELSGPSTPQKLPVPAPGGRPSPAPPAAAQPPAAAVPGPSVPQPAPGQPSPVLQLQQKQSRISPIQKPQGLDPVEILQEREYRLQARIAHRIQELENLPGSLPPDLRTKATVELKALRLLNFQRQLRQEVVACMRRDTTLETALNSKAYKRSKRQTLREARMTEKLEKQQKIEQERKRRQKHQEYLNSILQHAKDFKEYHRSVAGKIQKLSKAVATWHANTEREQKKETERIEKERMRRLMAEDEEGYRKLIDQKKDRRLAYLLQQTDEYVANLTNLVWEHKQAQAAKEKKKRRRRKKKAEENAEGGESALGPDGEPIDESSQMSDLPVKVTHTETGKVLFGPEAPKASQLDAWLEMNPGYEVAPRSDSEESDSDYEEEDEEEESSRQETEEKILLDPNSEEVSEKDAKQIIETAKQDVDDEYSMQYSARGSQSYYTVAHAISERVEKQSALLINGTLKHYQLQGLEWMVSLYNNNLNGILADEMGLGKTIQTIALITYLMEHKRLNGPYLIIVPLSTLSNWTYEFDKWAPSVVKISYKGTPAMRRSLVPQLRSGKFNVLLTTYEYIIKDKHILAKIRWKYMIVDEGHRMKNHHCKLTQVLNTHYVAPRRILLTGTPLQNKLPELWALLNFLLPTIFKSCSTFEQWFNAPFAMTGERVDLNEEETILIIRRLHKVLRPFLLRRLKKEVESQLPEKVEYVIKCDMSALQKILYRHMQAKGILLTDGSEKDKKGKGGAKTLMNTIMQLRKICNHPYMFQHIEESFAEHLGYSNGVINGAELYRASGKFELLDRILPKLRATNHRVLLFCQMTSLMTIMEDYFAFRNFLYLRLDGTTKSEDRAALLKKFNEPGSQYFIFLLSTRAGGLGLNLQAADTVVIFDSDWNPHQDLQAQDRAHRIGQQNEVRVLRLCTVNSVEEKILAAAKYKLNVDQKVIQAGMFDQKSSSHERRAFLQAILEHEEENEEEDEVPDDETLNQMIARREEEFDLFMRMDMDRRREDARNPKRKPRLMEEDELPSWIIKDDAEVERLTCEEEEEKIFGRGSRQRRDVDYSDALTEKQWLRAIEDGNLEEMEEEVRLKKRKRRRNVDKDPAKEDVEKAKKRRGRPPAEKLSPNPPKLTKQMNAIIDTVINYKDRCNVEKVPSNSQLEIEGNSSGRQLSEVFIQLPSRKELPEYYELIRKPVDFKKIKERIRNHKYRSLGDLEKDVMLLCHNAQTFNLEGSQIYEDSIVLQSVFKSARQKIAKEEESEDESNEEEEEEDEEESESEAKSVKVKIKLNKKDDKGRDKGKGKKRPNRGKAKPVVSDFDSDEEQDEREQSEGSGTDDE
T2 sequence (P51532 whole entry): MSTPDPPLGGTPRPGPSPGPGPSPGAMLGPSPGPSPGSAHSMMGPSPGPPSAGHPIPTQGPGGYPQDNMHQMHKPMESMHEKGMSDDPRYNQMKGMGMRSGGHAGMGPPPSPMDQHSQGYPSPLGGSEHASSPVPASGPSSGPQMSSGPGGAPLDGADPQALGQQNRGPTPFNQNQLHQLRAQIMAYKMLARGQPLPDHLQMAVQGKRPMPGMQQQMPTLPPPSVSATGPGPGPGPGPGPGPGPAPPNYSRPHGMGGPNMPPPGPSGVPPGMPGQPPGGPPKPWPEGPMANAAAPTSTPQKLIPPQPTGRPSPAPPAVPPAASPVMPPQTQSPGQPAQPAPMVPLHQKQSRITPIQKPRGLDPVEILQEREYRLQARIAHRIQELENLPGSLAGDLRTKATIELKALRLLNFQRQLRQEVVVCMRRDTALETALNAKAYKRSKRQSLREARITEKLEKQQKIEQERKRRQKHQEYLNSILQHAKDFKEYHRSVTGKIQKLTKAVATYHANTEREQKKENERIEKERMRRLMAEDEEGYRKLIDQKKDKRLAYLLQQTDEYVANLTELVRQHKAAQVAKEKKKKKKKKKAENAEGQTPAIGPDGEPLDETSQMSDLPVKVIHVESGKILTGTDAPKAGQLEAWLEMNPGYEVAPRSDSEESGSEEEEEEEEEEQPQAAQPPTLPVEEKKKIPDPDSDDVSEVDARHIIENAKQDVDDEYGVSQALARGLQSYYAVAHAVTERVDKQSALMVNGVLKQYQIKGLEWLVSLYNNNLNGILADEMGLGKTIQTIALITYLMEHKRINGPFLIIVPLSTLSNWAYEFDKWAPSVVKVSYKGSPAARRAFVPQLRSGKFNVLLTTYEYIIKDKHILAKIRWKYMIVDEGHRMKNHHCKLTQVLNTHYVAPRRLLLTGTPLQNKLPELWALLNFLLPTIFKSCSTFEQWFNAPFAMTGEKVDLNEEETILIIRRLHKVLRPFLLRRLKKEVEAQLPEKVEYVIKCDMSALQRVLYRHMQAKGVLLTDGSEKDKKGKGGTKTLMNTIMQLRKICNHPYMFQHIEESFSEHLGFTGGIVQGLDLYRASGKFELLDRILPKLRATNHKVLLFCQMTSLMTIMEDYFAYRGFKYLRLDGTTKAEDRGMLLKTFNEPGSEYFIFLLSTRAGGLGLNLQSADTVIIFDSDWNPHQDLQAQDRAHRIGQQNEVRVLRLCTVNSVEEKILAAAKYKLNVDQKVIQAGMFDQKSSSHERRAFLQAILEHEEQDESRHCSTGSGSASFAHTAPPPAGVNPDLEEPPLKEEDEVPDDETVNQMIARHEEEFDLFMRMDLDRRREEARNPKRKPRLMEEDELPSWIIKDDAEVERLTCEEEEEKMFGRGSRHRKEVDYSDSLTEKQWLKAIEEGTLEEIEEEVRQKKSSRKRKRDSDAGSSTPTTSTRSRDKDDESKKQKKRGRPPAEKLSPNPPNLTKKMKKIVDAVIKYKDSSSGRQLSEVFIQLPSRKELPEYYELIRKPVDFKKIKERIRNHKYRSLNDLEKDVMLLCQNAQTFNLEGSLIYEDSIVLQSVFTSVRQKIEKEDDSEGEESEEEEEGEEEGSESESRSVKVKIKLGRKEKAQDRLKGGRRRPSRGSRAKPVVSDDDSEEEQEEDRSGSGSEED

One may read the IC50 as the concentration at which inhibition is half-maximal. Consider `O=C(NCc1cc2nc(-c3cccc(OC4COC4)c3)ccc2cn1)c1ccc2c(c1)S(=O)(=O)CCOC2` [Compound 242], for which the IC50 in experiment [1] was 286 nM; in experiment [2], 3170 nM. In experiment [1], the “Ratio* (BRG1 IC50 (μM) divided by BRM IC50 (μM))” value is 11.06.

Regarding `O=C(NCc1cc2nc(-c3cccc(F)n3)ccc2cn1)c1ccc2c(c1)S(=O)(=O)CCOC2` [Compound 243], in experiment [1], it took 528 nM to reach half-maximal inhibition (IC50) and the “Ratio* (BRG1 IC50 (μM) divided by BRM IC50 (μM))” value stood at 8.82. Moreover, in experiment [2], the IC50 stood at 4660 nM.

As to `Cn1ccc(-c2cccc(-c3ccc4cnc(CNC(=O)c5ccc6c(c5)S(=O)(=O)CCOC6)cc4n3)c2)n1` [Compound 244], the concentration for half-maximal inhibition (IC50) in experiment [1] stood at 20.7 nM; in experiment [2] it was 337 nM. Also, the “Ratio* (BRG1 IC50 (μM) divided by BRM IC50 (μM))” value in experiment [1] came out at 16.32.

Regarding `Cn1ccc2c(-c3ccc4cnc(CNC(=O)c5ccc6c(c5)S(=O)(=O)CCOC6)cc4n3)cccc21` [Compound 245], in experiment [1], the IC50 was 18.7 nM and the “Ratio* (BRG1 IC50 (μM) divided by BRM IC50 (μM))” value was 9.42. In addition, the half-inhibitory concentration (IC50) in experiment [2] came out at 176 nM.

As for `O=C(NCc1cc2nc(-c3ccccc3Cl)ccc2cn1)c1ccc2c(c1)S(=O)(=O)CCOC2` [Compound 247], the half-maximal inhibitory concentration (IC50) in experiment [1] stood at 325 nM; in experiment [2] it was 2000 nM. Moreover, the “Ratio* (BRG1 IC50 (μM) divided by BRM IC50 (μM))” value in experiment [1] is on record as 6.16.

With `O=C(NCc1cc2cc(-c3cncc(C4CC4)n3)ccc2cn1)c1cnc2c(c1)S(=O)(=O)CCOC2` [Compound 248], in experiment [1], it took 70.2 nM to reach half-maximal inhibition (IC50) and the “Ratio* (BRG1 IC50 (μM) divided by BRM IC50 (μM))” value is recorded as 8.41. Besides, in experiment [2], the 50% inhibitory concentration (IC50) is 590 nM.

Take `O=C(NCc1cc2nc(-c3ccccc3OC(F)F)ccc2cn1)c1ccc2c(c1)S(=O)(=O)CCOC2` [Compound 250]: the IC50 in experiment [1] was found to be 105 nM; in experiment [2] it was 751 nM. Moreover, in experiment [1], the “Ratio* (BRG1 IC50 (μM) divided by BRM IC50 (μM))” value was 7.17.

With `O=C(NCc1cc2nc(-c3cccc([C@@H]4CC4(F)F)c3)ccc2cn1)c1ccc2c(c1)S(=O)(=O)CCOC2` [Compound 251], in experiment [1], the half-maximal inhibitory concentration (IC50) was 176 nM and the “Ratio* (BRG1 IC50 (μM) divided by BRM IC50 (μM))” value was determined as 9.69. Further, the IC50 in experiment [2] is 1700 nM.

In the case of `O=C(NCc1cc2nc(-c3cccc([C@H]4CC4(F)F)c3)ccc2cn1)c1ccc2c(c1)S(=O)(=O)CCOC2` [Compound 252], the IC50 in experiment [1] worked out at 75.3 nM; in experiment [2], 1380 nM. Moreover, the “Ratio* (BRG1 IC50 (μM) divided by BRM IC50 (μM))” value in experiment [1] was 18.31.

Consider `O=C(NCc1cc2nc(-c3cccc(C4CC4)n3)ccc2nn1)c1ccc2c(c1)S(=O)(=O)CCOC2` [Compound 253], for which the IC50 in experiment [1] amounted to 20.7 nM; in experiment [2], 398 nM. In addition, the “Ratio* (BRG1 IC50 (μM) divided by BRM IC50 (μM))” value in experiment [1] was 19.26.

Consider `COc1ccccc1-c1ccc2cnc(CNC(=O)c3ccc4c(c3)S(=O)(=O)CCOC4)cc2n1` [Compound 254], for which, in experiment [1], the IC50 stood at 54.2 nM and the “Ratio* (BRG1 IC50 (μM) divided by BRM IC50 (μM))” value was found to be 9.53. For the same compound, the half-maximal inhibitory concentration (IC50) in experiment [2] stood at 517 nM.

Take `O=C(NCc1cc2nc(-c3cccc(N4CCC4)c3)ccc2cn1)c1ccc2c(c1)S(=O)(=O)CCOC2` [Compound 255]: in experiment [1], the IC50 turned out to be 36.4 nM and the “Ratio* (BRG1 IC50 (μM) divided by BRM IC50 (μM))” value worked out at 13.37. In experiment [2], the concentration for half-maximal inhibition (IC50) was found to be 487 nM.

As for `O=C(NCc1cc2cc(-c3cccc(N4CCC4)n3)ccc2cn1)c1cnc2c(c1)S(=O)(=O)CCOC2` [Compound 256], in experiment [1], the IC50 worked out at 49 nM and the “Ratio* (BRG1 IC50 (μM) divided by BRM IC50 (μM))” value came to 8.69. Moreover, the concentration for half-maximal inhibition (IC50) in experiment [2] turned out to be 426 nM.

`O=C(NCc1cc2cc(-c3cncc(N4CCC4)n3)ccc2cn1)c1ccc2c(c1)S(=O)(=O)CCOC2` [Compound 257]: in experiment [1], the 50% inhibitory concentration (IC50) was 15.4 nM and the “Ratio* (BRG1 IC50 (μM) divided by BRM IC50 (μM))” value was found to be 6.99. Moreover, the IC50 in experiment [2] was 107 nM.

As to `O=C(NCc1cc2nc(-c3cccc(Cl)c3)ccc2cn1)c1ccc2c(c1)S(=O)(=O)CCOC2` [Compound 258], in experiment [1], the 50% inhibitory concentration (IC50) is 221 nM and the “Ratio* (BRG1 IC50 (μM) divided by BRM IC50 (μM))” value turned out to be 18.63. Besides, the IC50 in experiment [2] turned out to be 4120 nM.

Turning to `CS(=O)(=O)c1cc(C(=O)NCc2cc3nc(-c4cccc(C5CC5)n4)ccc3cn2)ccc1C#N` [Compound 259], in experiment [1], half-maximal inhibition (IC50) required 467 nM and the “Ratio* (BRG1 IC50 (μM) divided by BRM IC50 (μM))” value was determined as 10.71. Also, in experiment [2], the half-maximal inhibitory concentration (IC50) was 5000 nM.

As for `COC[C@H](C)S(=O)(=O)c1cccc(C(=O)NCc2cc3nc(-c4cncc(C5CC5)n4)ccc3cn2)c1` [Compound 260], the figures for the IC50 in experiment [1] and in experiment [2] were 697 nM and 5000 nM, respectively. In addition, the “Ratio* (BRG1 IC50 (μM) divided by BRM IC50 (μM))” value in experiment [1] was found to be 7.17.

On to `COc1nn(C2COC2)cc1-c1ccc2cnc(CNC(=O)c3ccc4c(c3)S(=O)(=O)CCOC4)cc2c1` [Compound 261], for which, in experiment [1], the 50% inhibitory concentration (IC50) came to 16.5 nM and the “Ratio* (BRG1 IC50 (μM) divided by BRM IC50 (μM))” value worked out at 14.10. The IC50 in experiment [2] came out at 233 nM.

Regarding `CC(C)(F)c1cncc(-c2ccc3cnc(CNC(=O)c4ccc5c(c4)S(=O)(=O)CCOC5)cc3n2)n1` [Compound 262], the IC50 in experiment [1] came out at 466 nM; in experiment [2], 2620 nM. Moreover, the “Ratio* (BRG1 IC50 (μM) divided by BRM IC50 (μM))” value in experiment [1] worked out at 5.63.

As for `O=C(NCc1cc2cc(-c3cncc(C4CC4)n3)ccc2cn1)c1ccc2c(c1)S(=O)(=O)CCOC2` [Compound 263], the half-maximal inhibitory concentration (IC50) is 23.3 nM in experiment [1] and 348 nM in experiment [2]. In addition, the “Ratio* (BRG1 IC50 (μM) divided by BRM IC50 (μM))” value in experiment [1] was determined as 14.94.

As to `O=C(NCc1cc2nc(-c3cccc(C4CC4)n3)ccc2cn1)c1ccc2c(c1)S(=O)(=O)CCOC2` [Compound 264], in experiment [1], the half-maximal inhibitory concentration (IC50) turned out to be 23.5 nM and the “Ratio* (BRG1 IC50 (μM) divided by BRM IC50 (μM))” value amounted to 25.10. In addition, the 50% inhibitory concentration (IC50) in experiment [2] was 590 nM.

Regarding `COc1cccc(-c2ccc3cnc(CNC(=O)c4ccc5c(c4)S(=O)(=O)CCOC5)cc3n2)c1` [Compound 265], in experiment [1], the IC50 came to 167 nM and the “Ratio* (BRG1 IC50 (μM) divided by BRM IC50 (μM))” value is given as 14.36. Besides, the IC50 in experiment [2] was 2400 nM.

Take `CS(=O)(=O)c1cc(C(=O)NCc2cc3nc(-c4cncc(C5CC5)n4)ccc3cn2)ccc1C1CC1` [Compound 266]: in experiment [1], the half-maximal inhibitory concentration (IC50) was 819 nM and the “Ratio* (BRG1 IC50 (μM) divided by BRM IC50 (μM))” value is on record as 6.11. Moreover, in experiment [2], the IC50 came out at 5000 nM.

With `O=C(NCc1cc2nc(-c3cccc([C@H]4CC4(F)F)n3)ccc2cn1)c1ccc2c(c1)S(=O)(=O)CCOC2` [Compound 267], in experiment [1], the 50% inhibitory concentration (IC50) was 35.2 nM and the “Ratio* (BRG1 IC50 (μM) divided by BRM IC50 (μM))” value turned out to be 30.99. Besides, the concentration for half-maximal inhibition (IC50) in experiment [2] was determined as 1090 nM.

Consider `O=C(NCc1cc2cc(-c3cccc(N4CCC4)n3)ccc2cn1)c1cc(F)c2c(c1)S(=O)(=O)CCOC2` [Compound 268], for which, in experiment [1], 16.3 nM corresponded to half-maximal inhibition (IC50) and the “Ratio* (BRG1 IC50 (μM) divided by BRM IC50 (μM))” value came out at 21.00. Further, the concentration for half-maximal inhibition (IC50) in experiment [2] was determined as 343 nM.

Turning to `Cc1c(Cl)cc(C(=O)NCc2cc3nc(-c4cncc(C5CC5)n4)ccc3cn2)cc1S(C)(=O)=O` [Compound 269], in experiment [1], the IC50 was found to be 200 nM and the “Ratio* (BRG1 IC50 (μM) divided by BRM IC50 (μM))” value was 25.03. Further, the IC50 in experiment [2] amounted to 5000 nM.

In the case of `O=C(NCc1cc2nc(-c3cccc([C@@H]4CC4(F)F)n3)ccc2cn1)c1ccc2c(c1)S(=O)(=O)CCOC2` [Compound 270], the figures for the IC50 in experiment [1] and in experiment [2] were 127 nM and 1570 nM, respectively. The “Ratio* (BRG1 IC50 (μM) divided by BRM IC50 (μM))” value in experiment [1] was determined as 12.44.

As to `O=C(NCc1cc2cc(-c3cccc(N4CCC4)n3)ccc2cn1)c1ccc2c(c1)S(=O)(=O)CCOC2` [Compound 271], in experiment [1], the IC50 was determined as 16.1 nM and the “Ratio* (BRG1 IC50 (μM) divided by BRM IC50 (μM))” value worked out at 12.70. In addition, in experiment [2], the 50% inhibitory concentration (IC50) is 204 nM.

The values above are taken from patent US20230416248A1, “COMPOUNDS AND USES THEREOF” (Foghorn Therapeutics Inc., priority 2020, published 2023).
